Consider 37 molecules from patent US6413948B1, “Pharmaceutical compositions and methods of effecting a neuronal activity in an animal using naaladase inhibitors” (Guilford Pharmaceuticals Inc., priority 1996, dated 2002).

Read-outs that look alike come from different tables or passages of the source. Residues, ends and D or L forms follow the SMILES beside them.

Assay [1] relates to spinal cord organotypic cultures. Nature of the assay: Spinal cord culture model of ALS (THA toxicity, ChAT activity). It counts as cell-based, rats. Particulars: Table XII; THA without inhibitor. As for the experimental part: Organotypic cultures were prepared from lumbar spinal cord of 8 day old rats, as described by Rothstein et al., J. Neurochem., Vol. 65, No. 2 (1995), and Rothstein et al., Proc. Natl. Acad. Sci. USA, Vol. 90, pp. 6591-6595 (July 1993). In brief, lumbar spinal cords were removed and sliced into 300 […] sections, and five slices were placed on Millipore CM semipermeable 30-mm-diameter membrane inserts. The inserts were placed on 1 ml of culture medium in 35-mm-diameter culture wells. Culture medium consisted of 50% minimal essential medium and phosphate-free HEPES (25 mM), 25% heat-inactivated horse serum, and 25% Hanks' balanced salt solution (GIBCO) supplemented with D-glucose (25.6 mg/ml) and glutamine (2 mM), at a final pH of 7.2. Antibiotic and antifungal agents were not used. Cultures were incubated at 37° C. in 5% CO2 containing humidified environment (Forma Scientific). Culture medium, along with any added pharmacological agents, was changed twice weekly.
Drugs were incubated for an additional 13 to 20 days with the 100 μM THA. At the end of this period, cultures were collected assayed for ChAT activity as described below.
To determine choline acetyltransferase (ChAT) activity, the spinal cord tissues in each dish (five slices) were pooled and frozen (−75° C.) until assay. ChAT activity was measured radiometrically by described methods using [^3H] acetyl-CoA (Amersham; Fonnum, 1975). Protein content of tissue homogenate was determined by a Coomassi Protein Assay kit (Pierce, Rockford, Ill.).

Assay [2] relates to cortical cell cultures. Nature of the assay: In vitro assay of NAALADase inhibitors on ischemia (potassium cyanide and 2-deoxyglucose, LDH release). It counts as cell-based, rats. Particulars: Rattus norvegicus, 1 h, read-out: EC50 (concentration required to cause a 50% reduction in glutamate toxicity following an ischemic insult). (In general: LDH leaks from cells whose membrane has failed.)
Experimental: The methods for this assay are described in detail below.
Dissociated cortical cell cultures are prepared using the papain-dissociation method of Heuttner and Baughman (1986) as modified by Murphy and Baraban (1990). […] Fetuses of embryonic day 17 are removed from timed pregnancy rats (Harlan Sprague Dawley). The cortex is rapidly dissected out in Dulbecco's phosphate-buffered saline, stripped of meninges, and incubated in a papain solution for 15 minutes at 37° C. The tissue is then mechanically triturated and pelleted at 500 g (1000-2000 rpm on swinging bucket Beckman). The pellet is resuspended in a DNAase solution, triturated with a 10 ml pipette ×15-20, layered over a “10×10” solution containing albumin and trypsin inhibitor (see TABLE VII for an example of a “10×10” solution), repelleted, and resuspended in a plating medium containing 10% fetal bovine serum (HyClone A-1111-L), 5% heat-inactivated Equine serum (HyClone A-3311-L), and 84% modified Earle's basal medium (MEM) (Gibco 51200-020) with high glucose (4.5 g/L), and 1 g/L NaHCO3. Each 24-well plate is pretreated with poly-D-lysine (0.5 ml/well of 10 μg/ml) for 1 h and rinsed with water before plating. Cultures are plated at 2.5×10^6 cells/ml with each well of a 24 well plate receiving 500 μl/well. Alternatively, 35 mm dishes can be plated at 2 ml/dish, 6 well plates at 2 ml/well, or 12 well plates at 1 ml/well. After plating, 50% of the medium is changed every 3-4 days with growth serum containing 5% heat-inactivated Equine serum (HyClone A3111-L), 95% modified Earle's basal medium (MEM)(Gibco 51200-020), and 1% L-Glutamine (Gibco 25030-081). Experiments are performed after 21 days in cultures. Cultures are maintained in a 5% CO2 atmosphere at 37° C.
Twenty-one to twenty-four days following the initial cortical cell plating, the experiment is performed. The cultures are washed three times in HEPES buffered saline solution containing no phosphate. […] At the end of 24 hours, the cultures are analyzed for release of the cytosolic enzyme lactate dehydrogenase (LDH), a standard measure of cell lysis. LDH measurements are performed according to the method of Koh and Choi, J. Neuroscience Methods (1987).
Release of the cytosolic enzyme lactate dehydrogenase (LDH), a standard measure of cell lysis, is used to quantify injury (Koh and Choi, 1987). LDH-activity measurements are normalized to control for variability between culture preparations (Koh and Choi, 1987). […] This control measurement is subtracted from each experimental point. […] Only main effects of NAALADase inhibitors are considered; interactions between dose and condition are not examined statistically.

Assay [3] relates to cortical cell cultures. Nature of the assay: In vitro toxicity of NAAG. The assay is classed as cell-based, rats. Particulars: 20 minutes. The protocol:
See TABLE VII for the Dissociated Culture Protocol as used herein. […] Experiments are performed after 21 days in cultures.
At the end of exposure, the cells are washed once with HEPES buffered saline solution and then replaced with serum free modified Earle's basal medium. The cultures are then returned to the CO2 incubator for 24 hour recovery.
This control measurement is subtracted from each experimental point.

In assay [4] the test system is NAALADase. As to conditions: NAAG as substrate of NAALADase; cited from earlier work.
Assay [5] addresses T1, NAALADase (UniProt P70627).
T1 construct: Ki; other: compared with 2-(phosphonomethyl)pentanedioic acid
Nature of the assay: In vitro inhibition of NAALADase activity. It counts as biochemical. As to conditions: for Ki: [3H]Glu liberated from [3H]NAAG, synaptosomal protein, 15 minutes at 37° C.; for NAALADase inhibiting activity (comparison in words): compared with 2-(phosphonomethyl)pentanedioic acid. The protocol: Various compounds of formula I were tested for in vitro inhibition of NAALADase activity.
Substrate and product were resolved by anion-exchange liquid chromatography. […] Quisqualate (100 μM) was included in parallel assay tubes to confirm the specificity of the measurements.

For a further assay, the system named is MPTP lesioned mice. Nature of the assay: In vivo assay on Parkinson's Disease (MPTP lesioned mice, TH immunostaining). Further details: species or system CD1 white mice. The protocol: MPTP lesioning of dopaminergic neurons in mice was used as an animal model of Parkinson's Disease, as described by Steiner, Proc. Natl. Acad. Sci., Vol. 94, pp. 2019-2024 (March 1997). In brief, four week old male CD1 white mice were dosed IP with 30 mg/kg of MPTP for 5 days. […] At 18 days following MPTP treatment, the mice were sacrificed and their brains were removed and sectioned. Immunostaining was performed on saggital and coronal brain sections using anti-tyrosine hydroxylase (TH) antibodies to quantitate survival and recovery of dopaminergic neurons.

Setting [6] is: treated during ischemic insult and for one hour thereafter.

For the molecule `N[C@H](C(=O)O)[C@H](O)C(=O)O` [THA, threohydroxyaspartate, reference compound], the “ChAT Activity (% of Control)” value in assay [1] is 0 % of Control.

Regarding `CCCCP(=O)(O)CC(CCC(=O)O)C(=O)O` (centres unmarked) [drawing 45], the EC50 with cortical cell cultures [2] (setting [6]) was determined as 794 nM. `CC(=O)N[C@@H](CC(=O)O)C(=O)N[C@@H](CCC(=O)O)C(=O)O` [NAAG, N-acetyl-aspartyl-glutamate] (Ac-Asp-Glu-OH): the “% Toxicity” value in the assay with cortical cell cultures [3] (NAAG 3 μM) was 3.51 (n = 1) %; in the assay with cortical cell cultures [3] (NAAG 10 μM), 4.30 ± 3.12 (n = 3) %; with cortical cell cultures [3] (NAAG 30 μM), 11.40 ± 6.17 (n = 3) %; in the assay with cortical cell cultures [3] (NAAG 100 μM), 12.66 ± 5.50 (n = 3) %; with cortical cell cultures [3] (NAAG 300 μM) it was 13.50 ± 4.0 (n = 3) %; with cortical cell cultures [3] (NAAG 1 mM) it was 21.46 ± 4.20 (n = 3) %. Also, the “% Toxicity” value in the assay with cortical cell cultures [3] (NAAG 3 mM) is 45.11 ± 4.96 (n = 3) %. Further, the Michaelis constant (Km) with NAALADase [4] was 0.54 µM. As to `O=C(O)CCC(CP(=O)(O)CCCc1ccccc1)C(=O)O` (centres unmarked) [drawing 50], in the assay with cortical cell cultures [2] (setting [6]), the EC50 was determined as 4320 nM. Turning to `O=C(O)CCC(CP(=O)(O)Cc1c(F)c(F)c(F)c(F)c1F)C(=O)O` (centres unmarked) [drawing 48], the EC50 in the assay on cortical cell cultures [2] (setting [6]) was 2 nM. Regarding `Cc1ccc(P(=O)(O)CC(CCC(=O)O)C(=O)O)cc1` (centres unmarked), the Ki on NAALADase [5] is 204 nM. For the molecule `O=C(O)CCC(CP(=O)(O)Cc1ccc(F)cc1)C(=O)O` (centres unmarked) [drawing 47], the EC50 with cortical cell cultures [2] (setting [6]) came to 79 nM. On to `O=C(O)CCC(CP(=O)(O)Cc1ccc(OCc2ccccc2)cc1)C(=O)O` (centres unmarked), for which, on NAALADase [5], the inhibitory constant (Ki) is 177 nM.

Consider `O=C(O)CCC(CP(=O)(O)Cc1ccccc1)C(=O)O` (centres unmarked) [drawing 18], for which, on NAALADase [5], the Ki worked out at 34.1 nM. On the same count and under the same terms, as for `Cc1cccc(P(=O)(O)CC(CCC(=O)O)C(=O)O)c1` (centres unmarked), the figure is 180 nM. Still for that read-out and setting: for `O=C(O)CCC(CP(=O)(O)CCCc1ccccc1)C(=O)O` (centres unmarked) [drawing 24] the value was 232 nM; for `Cc1ccc(CP(=O)(O)CC(CCC(=O)O)C(=O)O)cc1` (centres unmarked) [drawing 27], 68 nM. Turning to `O=C(O)C(CCc1ccccc1)CP(=O)(O)O` (centres unmarked) [drawing 40], the EC50 with cortical cell cultures [2] (setting [6]) turned out to be 373 nM. `O=C(O)CCC(CP(=O)(O)C(O)c1ccccc1)C(=O)O` (centres unmarked) [drawing 44]: the EC50 with cortical cell cultures [2] (setting [6]) amounted to 767 nM. Consider `O=C(O)C(CCc1ccccc1)CP(=O)(O)O` (centres unmarked) [drawing 33], for which the inhibition constant (Ki) on NAALADase [5] stood at 199 nM. Turning to `O=C(O)CCC(CP(=O)(O)c1ccccc1)C(=O)O` (centres unmarked) [drawing 43], the EC50 in the assay with cortical cell cultures [2] (setting [6]) worked out at 100 nM. Take `O=C(O)CCC(CP(=O)(O)c1ccc(F)cc1)C(=O)O` (centres unmarked): the Ki on NAALADase [5] amounted to 532 nM. Still for that read-out and setting: for `O=C(O)CCC(CP(=O)(O)Cc1ccccc1C(F)(F)F)C(=O)O` (centres unmarked) the value was 92 nM; for `CP(=O)(O)CC(CCC(=O)O)C(=O)O` (centres unmarked), 1100 nM; for `O=C(O)CCC(CP(=O)(O)Cc1ccc(O)cc1)C(=O)O` (centres unmarked), 117 nM. Turning to `O=C(O)CCC(CP(=O)(O)O)C(=O)O` (centres unmarked) [drawing 39], the EC50 in the assay on cortical cell cultures [2] turned out to be 0.67 nM. Take `O=C(O)CC(CP(=O)(O)O)C(=O)O` (centres unmarked) [2-(phosphonomethyl)succinic acid]: on NAALADase [5], the inhibitory constant (Ki) was 700 ± 67.3 nM and the “NAALADase inhibiting activity (comparison in words)” value is recorded as “much lower NAALADase inhibiting activity”. Consider `O=C(O)CCC(CP(=O)(O)Cc1ccc(F)cc1)C(=O)O` (centres unmarked) [drawing 28], for which the Ki at NAALADase [5] worked out at 70 nM.

Consider `O=C(O)CCC(CP(=O)(O)c1ccccc1)C(=O)O` (centres unmarked) [drawing 19], for which the Ki at NAALADase [5] turned out to be 35.8 nM.

In the case of `O=C(O)CCC(CP(=O)(O)Cc1cccc(C(F)(F)F)c1)C(=O)O` (centres unmarked) [drawing 41], the EC50 with cortical cell cultures [2] (setting [6]) is 112 nM. The same measure, in the same setting: as for `COc1ccc(CP(=O)(O)CC(CCC(=O)O)C(=O)O)cc1` (centres unmarked) [drawing 51], the figure is 1670 nM. Take `O=C(O)CCC(CP(=O)(O)CCC(=O)O)C(=O)O` (centres unmarked) [2-[[(2-carboxyethyl)hydroxyphosphinyl]methyl]pentanedioic acid]: at NAALADase [5], the Ki stood at 1.89 ± 0.19 nM and the “NAALADase inhibiting activity (comparison in words)” value is reported as “lower NAALADase inhibiting activity”. With `O=C(O)CCC(CP(=O)(O)CCc1ccccc1)C(=O)O` (centres unmarked) [drawing 23], the Ki at NAALADase [5] came out at 148 nM. As for `O=C(O)CCC(CP(=O)(O)CCc1ccccc1)C(=O)O` (centres unmarked) [drawing 49], the EC50 with cortical cell cultures [2] (setting [6]) was 834 nM.

In the case of `O=C(O)CCC(CP(=O)(O)Cc1cccc(C(F)(F)F)c1)C(=O)O` (centres unmarked) [drawing 36], the Ki on NAALADase [5] amounted to 22.5 nM. In the case of `O=C(O)CCC(CP(=O)(O)Cc1c(F)c(F)c(F)c(F)c1F)C(=O)O` (centres unmarked) [drawing 31], the inhibition constant (Ki) at NAALADase [5] came out at 22.7 nM. On to `O=C(O)CCC(CP(=O)(O)Cc1ccccc1)C(=O)O` (centres unmarked) [drawing 42], for which the EC50 in the assay with cortical cell cultures [2] (setting [6]) is 132 nM. Regarding `O=C(O)CCCC(CP(=O)(O)O)C(=O)O` (centres unmarked), the Ki at NAALADase [5] is 185 nM.

On to `CN1CC=C(c2ccccc2)CC1` [MPTP, reference compound], for which the “loss of functional dopaminergic terminals as compared to non-lesioned mice” value with MPTP lesioned mice (MPTP and vehicle) is “approximately 68%”. The “Percent Strial TH Innervation Density (mean ± SEM)” value in the assay on MPTP lesioned mice (MPTP/vehicle, MPTP 30 mg/kg IP for 5 days) amounted to 7.82 ± 0.68%. With `Cc1ccc(CP(=O)(O)CC(CCC(=O)O)C(=O)O)cc1` (centres unmarked) [drawing 46], in the assay on cortical cell cultures [2] (setting [6]), the EC50 is 37 nM. As for `CCCCP(=O)(O)CC(CCC(=O)O)C(=O)O` (centres unmarked) [drawing 21], on NAALADase [5], the Ki is 113 nM.

In the case of `O=C(O)CCC(CP(=O)(O)Cc1ccccc1F)C(=O)O` (centres unmarked), the inhibitory constant (Ki) on NAALADase [5] stood at 145 nM.

In general, Km refers to the concentration of substrate that gives half-maximal velocity. What is called Ki is a dissociation constant, usually derived from enzyme kinetics or from competition with a known ligand.
